Measurements published in ChEMBL document CHEMBL3832053, “DailyMed|setid=94de983f-549b-42ed-9f40-b022aa3bef0f | TRANDOLAPRIL- trandolapril tablet|Carilion Materials Management”.
“And” between values parts separate entries of the source, which are not always exact repeats. Equal values may be shown once.

System: Homo sapiens
Experiment: Pharmacokinetic parameters for Trandolapril or its active metabolite of Trandolaprilat, after oral or intravenous (IV) administration of Trandolapril.
Details: in vivo; for Total CL: iv

| Total CL [L/h] | Excretion (po) | F (po) [%] | Protein binding (po) | t1/2 ss (po) [h] | CL renal (po) [L/h] | t1/2 (po) [h] | SMILES |
| --- | --- | --- | --- | --- | --- | --- | --- |
| 7 | 66% and 33% | 70 | 94% and 65% | 22.5 | – | – | C[C@H](N[C@@H](CCc1ccccc1)C(=O)O)C(=O)N1[C@H](C(=O)O)C[C@H]2CCCC[C@@H]21 [TRANDOLAPRILAT] |
| 52 | – | – | – | – | 1 to 4 | 6 | CCOC(=O)[C@H](CCc1ccccc1)N[C@@H](C)C(=O)N1[C@H](C(=O)O)C[C@H]2CCCC[C@@H]21 [TRANDOLAPRIL] |
